Reference: patent US10316035B2, “Triazolopyridine inhibitors of myeloperoxidase” (BRISTOL-MYERS SQUIBB COMPANY, priority 2015, dated 2019)
Counter-ions that a name gives are not always drawn. Like-named read-outs stand apart in the source and are kept apart here.

Target: T1, myeloperoxidase (MPO) (Homo sapiens, UniProt P05164)
T1 sequence (P05164 49-745): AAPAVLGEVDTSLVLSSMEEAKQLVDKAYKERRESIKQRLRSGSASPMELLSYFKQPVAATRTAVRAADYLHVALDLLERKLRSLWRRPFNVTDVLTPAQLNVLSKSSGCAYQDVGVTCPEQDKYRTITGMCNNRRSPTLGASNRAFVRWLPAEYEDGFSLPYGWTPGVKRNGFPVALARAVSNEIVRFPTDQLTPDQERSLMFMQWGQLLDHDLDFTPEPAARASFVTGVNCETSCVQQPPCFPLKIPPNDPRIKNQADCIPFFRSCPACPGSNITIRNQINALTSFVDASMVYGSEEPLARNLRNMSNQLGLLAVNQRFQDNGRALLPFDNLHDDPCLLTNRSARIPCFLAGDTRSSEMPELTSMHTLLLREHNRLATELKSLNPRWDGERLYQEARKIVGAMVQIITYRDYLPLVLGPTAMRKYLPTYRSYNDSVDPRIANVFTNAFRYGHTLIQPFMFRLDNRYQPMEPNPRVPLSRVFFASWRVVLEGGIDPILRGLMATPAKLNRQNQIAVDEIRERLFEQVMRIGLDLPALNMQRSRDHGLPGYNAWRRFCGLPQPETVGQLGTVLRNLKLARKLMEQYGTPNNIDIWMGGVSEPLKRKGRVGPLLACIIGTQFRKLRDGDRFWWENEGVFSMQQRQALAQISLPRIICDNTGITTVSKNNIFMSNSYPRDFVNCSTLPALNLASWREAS
Assay: MPO peroxidation assay (Amplex Red assay)
Type: biochemical
Procedure, shortened: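 Peroxidase turnover of Amplex Red to fluorescent resorufin (Ex 535/Em 590 nm) was followed for 15 min in 100 mM KPi, pH 7.4, after 10 min room-temperature preincubation of compound with 200 pM enzyme plus 40 nM H2O2. The substrate mix contained 200 μM Amplex Red and 10 mM H2O2. IC50s came from linear-phase rates (180–540 s) fitted with a Hill equation.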

[1] = MPO peroxidation, potency range class, read-out: Amplex Red IC50

Nc1cc(OCc2ccc(C(=O)NCc3ccccc3Cl)cc2Cl)c2nn[nH]c2n1 [Example 214, 4-((5-amino-3H-[1,2,3]triazolo[4,5-b]pyridin-7-yloxy)methyl)-3-chloro-N-(2-chlorobenzyl)benzamide]
IC50 [1]: 0.001 to 0.1 µM

COc1ccccc1CNC(=O)c1ccc(COc2cc(N)nc3[nH]nnc23)c(Cl)c1 [Example 215, 4-((5-amino-3H-[1,2,3]triazolo[4,5-b]pyridin-7-yloxy)methyl)-3-chloro-N-(2-methoxybenzyl)benzamide]
IC50 [1]: 0.001 to 0.1 µM

CNC(=O)CNC(=O)c1ccc(COc2cc(N)nc3[nH]nnc23)c(Cl)c1 [Example 218, 4-((5-amino-3H-[1,2,3]triazolo[4,5-b]pyridin-7-yloxy)methyl)-3-chloro-N-(2-(methylamino)-2-oxoethyl) benzamide]
IC50 [1]: 0.101 to 0.999 µM

Nc1cc(OCc2ccc(C(=O)NCc3cccnc3)cc2Cl)c2nn[nH]c2n1 [Example 219, 4-((5-amino-3H-[1,2,3]triazolo[4,5-b]pyridin-7-yloxy)methyl)-3-chloro-N-(pyridin-3-ylmethyl)benzamide]
IC50 [1]: 0.001 to 0.1 µM

NC(=O)C1CCN(C(=O)c2ccc(COc3cc(N)nc4[nH]nnc34)c(Cl)c2)CC1 [Example 220, 1-(4-((5-amino-3H-[1,2,3]triazolo [4,5-b]pyridin-7-yloxy)methyl)-3-chlorobenzoyl)piperidine-4-carboxamide]
IC50 [1]: 0.101 to 0.999 µM

Nc1cc(OCc2ccc(C(=O)NC3CCCCC3)cc2Cl)c2nn[nH]c2n1 [Example 221, 4-((5-amino-3H-[1,2,3]triazolo[4,5-b]pyridin-7-yloxy)methyl)-3-chloro-N-cyclohexylbenzamide]
IC50 [1]: 0.001 to 0.1 µM

CN(C)CCN(C)C(=O)c1ccc(COc2cc(N)nc3[nH]nnc23)c(Cl)c1 [Example 222, 4-((5-amino-3H-[1,2,3]triazolo[4,5-b]pyridin-7-yloxy)methyl)-3-chloro-N-(2-(dimethylamino)ethyl)-N-methylbenzamide]
IC50 [1]: 0.101 to 0.999 µM

CN(C(=O)c1ccc(COc2cc(N)nc3[nH]nnc23)c(Cl)c1)C1CCCCC1 [Example 223, 4-((5-amino-3H-[1,2,3]triazolo[4,5-b]pyridin-7-yloxy)methyl)-3-chloro-N-cyclohexyl-N-methylbenzamide]
IC50 [1]: 0.101 to 0.999 µM

Nc1cc(OCc2ccc(C(=O)NCCc3c[nH]cn3)cc2Cl)c2nn[nH]c2n1 [Example 224, N-(2-(1H-imidazol-4-yl)ethyl)-4-((5-amino-3H-[1,2,3]triazol[4,5-b]pyridin-7-yloxy)methyl)-3-chlorobenzamide]
IC50 [1]: 0.001 to 0.1 µM

CS(=O)(=O)c1cccc(Cl)c1COc1cc(N)nc2[nH]nnc12 [Example 225, 7-(2-Chloro-6-(methylsulfonyl)benzyloxy)-3H-[1,2,3]triazolo[4,5-b]pyridin-5-amine]
IC50 [1]: 0.001 to 0.1 µM

CCS(=O)(=O)c1ccc(Cl)cc1COc1cc(N)nc2[nH]nnc12 [Example 227, 7-((5-Chloro-2-(ethylsulfonyl)benzyl)oxy)-3H-[1,2,3]triazolo[4,5-b]pyridin-5-amine, TFA]
IC50 [1]: 0.101 to 0.999 µM

Nc1cc(OCc2cc(Cl)ccc2S(=O)(=O)Cc2ccccc2)c2nn[nH]c2n1 [Example 228, 7-((2-(Benzylsulfonyl)-5-chlorobenzyl)oxy)-3H-[1,2,3]triazolo[4,5-b]pyridin-5-amine, TFA]
IC50 [1]: 0.101 to 0.999 µM

CNS(=O)(=O)c1ccccc1COc1cc(N)nc2[nH]nnc12 [Example 229, 2-(((5-Amino-3H-[1,2,3]triazolo[4,5-b]pyridin-7-yl)oxy)methyl)-N-methylbenzenesulfonamide, TFA]
IC50 [1]: 0.101 to 0.999 µM

Nc1cc(OCc2ccccc2S(N)(=O)=O)c2nn[nH]c2n1 [Example 230, 2-(((5-Amino-3H-[1,2,3]triazolo[4,5-b]pyridin-7-yl)oxy)methyl)benzenesulfonamide, TFA]
IC50 [1]: 0.101 to 0.999 µM

CS(=O)(=O)c1cc(Br)ccc1COc1cc(N)nc2[nH]nnc12 [Example 231, 7-((4-Bromo-2-(methylsulfonyl)benzyl)oxy)-3H-[1,2,3]triazolo[4,5-b]pyridin-5-amine, TFA]
IC50 [1]: 0.001 to 0.1 µM

CS(=O)(=O)c1ccccc1COc1cc(N)nc2[nH]nnc12 [Example 232, 7-((2-(Methylsulfonyl)benzyl)oxy)-3H-[1,2,3]triazolo[4,5-b]pyridin-5-amine]
IC50: 0.101 to 0.999 µM

Nc1cc(OCc2c(F)cc(Br)cc2F)c2nn[nH]c2n1 [Example 233, 7-((4-Bromo-2,6-difluorobenzyl)oxy)-3H-[1,2,3]triazolo[4,5-b]pyridin-5-amine, TFA]
IC50 [1]: 0.001 to 0.1 µM

Nc1cc(OCc2c(F)ccc(Br)c2Cl)c2nn[nH]c2n1 [Example 235, 7-((3-Bromo-2-chloro-6-fluorobenzyl)oxy)-3H-[1,2,3]triazolo[4,5-b]pyridin-5-amine]
IC50 [1]: 0.001 to 0.1 µM

Nc1cc(OCc2c(F)ccc(Br)c2F)c2nn[nH]c2n1 [Example 236, 7-((3-Bromo-2,6-difluorobenzyl)oxy)-3H-[1,2,3]triazolo[4,5-b]pyridin-5-amine]
IC50 [1]: 0.001 to 0.1 µM

Nc1cc(OCc2c(F)cccc2Cl)c2nn[nH]c2n1 [Example 237, 7-((2-Chloro-6-fluorobenzyl)oxy)-3H-[1,2,3]triazolo[4,5-b]pyridin-5-amine]
IC50 [1]: 0.001 to 0.1 µM

Nc1cc(OCc2ccccc2OC(F)F)c2nn[nH]c2n1 [Example 238, 7-((2-(Difluoromethoxy)benzyl)oxy)-3H-[1,2,3]triazolo[4,5-b]pyridin-5-amine]
IC50 [1]: 0.001 to 0.1 µM

Nc1cc(OCc2ccccc2C(F)(F)F)c2nn[nH]c2n1 [Example 239, 7-((2-(Trifluoromethyl)benzyl)oxy)-3H-[1,2,3]triazolo[4,5-b]pyridin-5-amine]
IC50 [1]: 0.001 to 0.1 µM

Nc1cc(OCc2ccc(Br)cc2OC(F)(F)F)c2nn[nH]c2n1 [Example 240, 7-((4-Bromo-2-(trifluoromethoxy)benzyl)oxy)-3H-[1,2,3]triazolo[4,5-b]pyridin-5-amine]
IC50 [1]: 0.001 to 0.1 µM

Nc1cc(OCc2cc(Cl)ccc2C(F)(F)F)c2nn[nH]c2n1 [Example 241, 7-((5-Chloro-2-(trifluoromethyl)benzyl)oxy)-3H-[1,2,3]triazolo[4,5-b]pyridin-5-amine]
IC50 [1]: 0.001 to 0.1 µM

COc1cc(-n2cccn2)ccc1COc1cc(N)nc2[nH]nnc12 [Example 243, 7-((2-Methoxy-4-(1H-pyrazol-1-yl)benzyl)oxy)-3H-[1,2,3]triazolo[4,5-b]pyridin-5-amine]
IC50 [1]: 0.001 to 0.1 µM

Nc1cc(OCc2ccc(-n3ccnc3)cc2OC(F)(F)F)c2nn[nH]c2n1 [Example 244, 7-((4-(1H-Imidazol-1-yl)-2-(trifluoromethoxy)benzyl)oxy)-3H-[1,2,3]triazolo[4,5-b]pyridin-5-amine]
IC50 [1]: 0.001 to 0.1 µM

N#Cc1cc(Br)ccc1COc1cc(N)nc2[nH]nnc12 [Example 245, 2-(((5-Amino-3H-[1,2,3]triazolo[4,5-b]pyridin-7-yl)oxy)methyl)-5-bromobenzonitrile]
IC50 [1]: 0.001 to 0.1 µM

CS(=O)(=O)c1ccc(COc2cc(N)nc3[nH]nnc23)c(Cl)c1 [Example 246, 7-((2-chloro-4-(methylsulfonyl)benzyl)oxy)-3H-[1,2,3]triazolo[4,5-b]pyridin-5-amine]
IC50 [1]: 0.101 to 0.999 µM

N#Cc1ccccc1COc1cc(N)nc2[nH]nnc12 [Example 247, 2-(((5-amino-3H-[1,2,3]triazolo[4,5-b]pyridin-7-yl)oxy)methyl)benzonitrile]
IC50 [1]: 0.001 to 0.1 µM

Nc1cc(OCc2cccc(SC(F)(F)F)c2)c2nn[nH]c2n1 [Example 248, 7-((3-((trifluoromethyl)thio)benzyl)oxy)-3H-[1,2,3]triazolo[4,5-b]pyridin-5-amine]
IC50 [1]: 0.001 to 0.1 µM

Nc1cc(OCc2cc([N+](=O)[O-])ccc2Cl)c2nn[nH]c2n1 [Example 249, 7-((2-chloro-5-nitrobenzyl)oxy)-3H-[1,2,3]triazolo[4,5-b]pyridin-5-amine]
IC50 [1]: 0.001 to 0.1 µM

CS(=O)(=O)c1ccc(COc2cc(N)nc3[nH]nnc23)c([N+](=O)[O-])c1 [Example 250, 7-((4-(methylsulfonyl)-2-nitrobenzyl)oxy)-3H-[1,2,3]triazolo[4,5-b]pyridin-5-amine]
IC50 [1]: 0.101 to 0.999 µM

Cc1nc(-c2ccc(COc3cc(N)nc4[nH]nnc34)c(F)c2)no1 [Example 251, 7-((2-fluoro-4-(5-methyl-1,2,4-oxadiazol-3-yl)benzyl)oxy)-3H-[1,2,3]triazolo[4,5-b] pyridin-5-amine]
IC50 [1]: 0.001 to 0.1 µM

COc1cc(Cl)c(Cl)cc1COc1cc(N)nc2[nH]nnc12 [Example 252, 7-((4,5-Dichloro-2-methoxybenzyl)oxy)-3H-[1,2,3]triazolo[4,5-b]pyridin-5-amine]
IC50 [1]: 0.001 to 0.1 µM

Nc1cc(OCc2ccccc2-n2cncn2)c2nn[nH]c2n1 [Example 253, 7-((2-(1H-1,2,4-Triazol-1-yl)benzyl)oxy)-3H-[1,2,3]triazolo[4,5-b]pyridin-5-amine]
IC50 [1]: 0.101 to 0.999 µM

Nc1cc(OCc2ccccc2-n2cccn2)c2nn[nH]c2n1 [Example 255, 7-((2-(1H-Pyrazol-1-yl)benzyl)oxy)-3H-[1,2,3]triazolo[4,5-b]pyridin-5-amine]
IC50: 0.101 to 0.999 µM
